How the values were obtained:
[1] = tested on: platelet aggregation induced by PAF; experiment: Inhibition of platelet aggregation induced by PAF; format: cell-based, New Zealand albino rabbits; conditions: Oryctolagus cuniculus; rabbit platelet rich plasma, PAF (C₁₈) 15 nM, Born nephelometric technique; read-out: IC₅₀
Protocol: Blood is obtained by cardiac puncture of male New Zealand albino rabbits (b.w. 2-2.5 Kg) and coagulation is prevented by adding 1 part of 3.16% sodium citrate dihydrate in 9 parts of blood. Platelet rich plasma (PRP) is prepared by centrifuging the blood at 250xg for 10 min. at 4°C and then it is diluted with platelet poor plasma (PPP) obtained by further centrifuging at 3000xg for 10 min. The platelet count is adjusted to 3x10⁵/mm³. Platelet aggregation induced by PAF (C₁₈, prepared in our laboratory) (15 nM) is determined by the Born nephelometric technique (J. Physiol., 1962, 162, 67) using an aggregometer Chrono-log 500. The activities of the inhibitors are expressed as the IC₅₀ value, that is to say the concentration of drug needed to inhibit platelet aggregation by 50%.

[2] = tested on: LTB₄ production by human granulocytes (HL-60 cells); experiment: Inhibition of LTB4 production by human granulocytes; format: cell-based; conditions: differentiated HL-60 cells stimulated by calcium ionophore A23187 (5 x 10⁻⁶M), LTB₄ by EIA, read-out: % inh. of LTB₄ production (at 5 µM)
Protocol: Human promyelocytes (HL-60 cells) are grown in a RPMI 1640 medium suplemented with 20% heat-inactivated fetal bovine serum, 50 U/mL penicillin and 50 µg/mL streptomycin under an atmosphere of 5% CO₂ at 37°C. Cells are exposed to 1.3% DMSO for 5 days in order to differentiate them into mature granulocytes and then are washed and resuspended in Dubelcco's phosphate-buffered saline at 10⁶ cells/mL. HL-60 (10⁶ cells/mL) are incubated for 15 min at 37°C in the presence or absence (vehicle only) of test compound. Cells are then stimulated by calcium ionophore A23187 (5 x 10⁻⁶M) for 15 min. LTB₄ secreted into the external medium is measured by EIA (enzymo immunoassay) using a commercially available LTB₄-EIA kit. Results are expressed as the percent inhibition of LTB₄ production as compared to controls.

SMILES	IC50 [1] [nM]	inhibition at 5 µM [2] [%]
Cc1nnc2n1-c1sc3c(c1C(c1ccccc1Cl)=NC2C)CCN(C(=O)Cc1ccc(OCc2ccc4ccccc4n2)cc1)C3 (stereo not drawn) [Compound 2, 6-(2-Chlorophenyl)-1,4-dimethyl-9-[4-(2-quinolylmethoxy)phenylacetyl]-7,8,9,10-tetrahydro-4H-pyrido[4',3': 4,5]thieno[3,2-f] [1,2,4]triazolo[4,3-a] [1,4]diazepine]	16	–
Cc1nnc2n1-c1sc3c(c1C(c1ccccc1Cl)=NC2C)CCN(C(=O)c1cccc(OCc2ccc4ccccc4n2)c1)C3 (stereo not drawn) [Compound 1, 6-(2-Chlorophenyl)-1,4-dimethyl-9-[3-(2-quinolylmethoxy)benzoyl]-7,8,9,10-tetrahydro-4H-pyrido[4',3': 4,5]thieno[3,2-f] [1,2,4]triazolo[4,3-a] [1,4]diazepine]	32	72

Reference: EP0624588A1, “New quinoline derivatives with pharmacological activity” (J. URIACH & CIA. S.A., priority 1993, dated 1994)
